The record followed here is patent US20030059511A1, “Sweetener compositions and uses thereof” (AJINOMOTO CO., INC., priority 1999, published 2003).

The nature of assay [1]: Measurement of the magnification of sweetness intensity in aqueous solution (sensory evaluation against sucrose solutions). Particulars: for Amount equivalent to PSE 10% / intensity of sweetness, times that of sucrose (magnification of sweetness intensity): aqueous solution; for intensity of sweetness, times that of sucrose (magnification of sweetness intensity): about PSE 10%. Type of assay: in vivo, human. How it is done:
An aqueous solution was prepared by diluting derivative 2 to be PSE 10% concentration (15.5 mg/1000 ml=10/6500 g/100 ml), assuming that the intensity of sweetness of derivative 2 was 6500 times that of sucrose. Separately, aqueous sucrose solutions having sucrose concentrations of (a)6.94%, (b)8.33%, (c)10%, (d)12%, and (e)14.4% were prepared. The sensory evaluation was performed by determining which sucrose solution was closest to the solution of derivative 2 in the sweetness intensity. The result of calculation of the average of points of 20 panelists was 2.25 point.
The intensity of sweetness of the solution of derivative 2 was 8.75% according to the following equation: (10.0−8.33)×0.25+8.33=8.75. Accordingly, the intense sweetness of derivative 2 was 5600 (=8.75/0.00155) times that of sucrose. According to the same experiment, the intensity of sweetness of derivative 1 was 22600 times that of sucrose. Furthermore, the magnification of sweetness intensity of other derivatives (3 to 9) can be determined by the same method.
The intensity of sweetness of the solution of derivative 2 was 8.75% according to the following equation: (10.0−8.33)×0.25+8.33=8.75. Accordingly, the intensity of sweetness of derivative 2 was 5600 (=8.75/0.00155) times that of sucrose. According to the same experiment, the intensity of sweetness of derivative 1 was 22600 times that of sucrose. Furthermore, the magnification of sweetness intensity of other derivatives (3 to 9) can be determined by the same method.
An aqueous solution was prepared by diluting derivative 2 to be PSE 10% concentration (15.5 mg/1000 ml=10/6500 g/100 ml), assuming that the intense sweetness of derivative 2 was 6500 times that of sucrose. Separately, aqueous sucrose solutions having sucrose concentrations of (a)6.94%, (b)8.33%, (c)10%, (d)12%, and (e)14.4% were prepared. The sensory evaluation was performed by determining which sucrose solution was closest to the solution of derivative 2 in the sweetness intensity. The result of calculation of the average of points of 20 panelists was 2.25 point.
The sweetness intensity of the solution of derivative 2 was 8.75% according to the following equation: (10.0−8.33)×0.25+8.33=8.75. Therefore, the magnification of sweetness intensity of derivative 2 was 5600 (=8.75/0.00155) times that of sucrose. When the same experiment was performed, the magnification of sweetness intensity of derivative 1 was 22600 times that of sucrose.

A short description of assay [2]: Taste characteristics in an aqueous solution (9 items, similarity index vs aqueous 10% sucrose solution). It is filed as in vivo, human. The note with it: PSE 10%, smaller = closer to sucrose, 8 panelists. How it is done: The following experiments were performed using the water obtained by ion exchanging and further distilling the water.
An aqueous solution of each of derivatives 1 to 9 having a sweetness level equivalent to that of PSE 10% was prepared, and compared with aqueous 10% sucrose solution with respect to the following 9 items, i.e., “onset of the taste”, “round taste”, “clear taste”, “lingering taste”, “peculiar taste”, “heavy taste”, “bitter taste”, “astringent taste” and “irritation”. The results were determined as 5 levels (−2 point: very weak, −1 point: a little weak, 0 point: same, +1 point: a little strong, +2 point: very strong) by 8 panelists, and the average points were calculated. The sample solutions of the derivatives equivalent to PSE 10%, were prepared by using the magnification of sweetness intensity measured in Example 1, and the amounts of each derivatives to be used were as follows.
Next, the total of the absolute value of the deviation from sucrose in each of the evaluation items consisting of the onset of the taste, the round taste, the clear taste, the lingering taste, the peculiar taste, the heavy taste, the bitter taste, the astringent taste and the irritation was divided by 9 (total number of items) to calculate the similarity (which is referred to as “similarity index”). The smaller the similarity index becomes, the better the taste balances, and the closer the taste is to the taste characteristics (quality) of sucrose. The total taste becomes preferable. The similarity indexes of each derivatives are shown as follows.
To the aqueous solution of derivative 1 having a sweetness level equivalent to that of PSE 10%, salt was added as final concentratins of 0.1%, 0.2% and 0.5% to compare with the aqueous solution of 10% sucrose for by 2 points comparison method (n=8) and evaluate the characteristics of the taste.
The sensory evaluation was performed by the same way as Example 6.
The following experiments were conducted using the water obtained by ion exchanging and further distilling tap water.
An aqueous solution of each of derivatives 1 to 9 having a sweetness level equivalent to that of PES 10% was prepared, and compared with aqueous 10% sucrose solution with respect to 9 items, namely, “the onset of the taste”, “round taste”, “clear taste”, “lingering taste”, “peculiar taste”, “heavy taste”, “bitter taste”, “astringent taste” and “irritation”. The results were determined as 5 levels (−2 point: very weak, −1 point: a little weak, 0 point: same, +1 point: a little strong, +2 point: very strong) by 8 panelists, and the average points were calculated.
Next, the total of the absolute value of the deviation from sucrose in each of the evaluation items consisting of onset of the taste, round taste, clear taste, lingering taste, peculiar taste, heavy taste, bitter taste, astringent taste and irritation was divided by 9 (total number of items) to calculate the similarity (which is refer to as “similarity index”). The smaller the similarity index becomes, the better the taste balances, and the closer the taste is to the taste characteristics (quality) of sucrose. The total taste becomes preferable. The similarity indexes of each of the derivatives are shown as follows.

As to `COC(=O)[C@H](Cc1ccccc1)NC(=O)[C@H](CC(=O)O)NCCC(C)(C)c1ccc(O)c(C)c1` [Derivative 4, N-[N-[3-(3-methyl-4-hydroxyphenyl)-3-methylbutyl]-L-α-aspartyl]-L-phenylalanine 1-methyl ester], the “Amount equivalent to PSE 10%” value in assay [1] worked out at 2.3 mg/1000 ml. Besides, in assay [2], the Similarity index turned out to be 0.93.
For the molecule `COC(=O)[C@H](Cc1ccccc1)NC(=O)[C@H](CC(=O)O)NCCCc1ccc(O)c(C)c1` [Derivative 8, N-[N-[3-(3-methyl-4-hydroxyphenyl)propyl]-L-α-aspartyl]-L-phenylalanine 1-methyl ester], the “Amount equivalent to PSE 10%” value in assay [1] came to 5.5 mg/1000 ml. In assay [2], this molecule returned a Similarity index of 0.77.
On the same counts, the results for `COC(=O)[C@H](Cc1ccccc1)NC(=O)[C@H](CC(=O)O)NCCC(C)(C)c1ccc(O)cc1` [Derivative 6, N-[N-[3-(4-hydroxyphenyl)-3-methylbutyl]-L-α-aspartyl]-L-phenylalanine 1-methyl ester] are 6.7 mg/1000 ml and 0.93.
As for `COC(=O)[C@H](Cc1ccccc1)NC(=O)[C@H](CC(=O)O)NCCCc1ccc(OC)cc1` [Derivative 2, N-[N-[3-(4-methoxyphenyl)propyl]-L-α-aspartyl]-L-phenylalanine 1-methyl ester], in assay [1], the “Amount equivalent to PSE 10%” value is 17.9 mg/1000 ml and the “intensity of sweetness, times that of sucrose (magnification of sweetness intensity)” value amounted to 5600 times. Also, the “intensity of sweetness of the solution” value in assay [1] (aqueous solution 15.5 mg/1000 ml, sucrose-equivalent concentration) was 8.75%. The “average of points of 20 panelists” value in assay [1] (derivative 2 aqueous solution 15.5 mg/1000 ml, closest of sucrose solutions (a)6.94% to (e)14.4%) amounted to 2.25 point. This molecule returned a Similarity index in assay [2] of 0.63.
For `COC(=O)[C@H](Cc1ccccc1)NC(=O)[C@H](CC(=O)O)NCCCc1ccc(OC)c(O)c1` [Derivative 1, N-[N-[3-(3-hydroxy-4-methoxyphenyl)propyl] -L-α-aspartyl]-L-phenylalanine 1-methyl ester], in assay [1], the “Amount equivalent to PSE 10%” value is recorded as 4.5 mg/1000 ml and the “intensity of sweetness, times that of sucrose (magnification of sweetness intensity)” value was 22600 times. Also, the Similarity index in assay [2] is 1.17.
